Holding throughout (conditions): stereoisomer not certain
Data set [1] in a line: RP, Merck Supelco Ascentis Express C18, 100 × 2.1 mm, 2 µm, 39 °C, 0.3 mL/min, estimated dead time 0.73 min; A: water + 0.1% formic acid, pH 3; B: acetonitrile + 0.1% formic acid, pH 3; gradient (min/%B) 0/5 2/5 17/99.9 20/99.9.
Data set [2] in a line: RP, Merck Supelco Ascentis Express C18, 100 × 2.1 mm, 2 µm, 40 °C, 0.2 mL/min, estimated dead time 1.1 min; A: water + 0.1% formic acid, pH 3; B: acetonitrile + 0.1% formic acid, pH 3; gradient (min/%B) 0/5 2/5 17/99.9 20/99.9.
Data set [3] is described as follows: RP, Merck Supelco Ascentis Express C18, 100 × 2.1 mm, 2 µm, 40 °C, 0.4 mL/min, estimated dead time 0.55 min; A: water + 0.1% formic acid, pH 3; B: acetonitrile + 0.1% formic acid, pH 3; gradient (min/%B) 0/5 2/5 17/99.9 20/99.9.
A short description of data set [4]: RP, Merck Supelco Ascentis Express C18, 100 × 2.1 mm, 2 µm, 40 °C, 0.25 mL/min, estimated dead time 0.88 min; A: water + 0.1% formic acid, pH 3; B: acetonitrile + 0.1% formic acid, pH 3; gradient (min/%B) 0/5 2/5 17/99.9 20/99.9.
Data set [5] in a line: RP, Merck Supelco Ascentis Express C18, 100 × 2.1 mm, 2 µm, 40 °C, 0.2 mL/min, estimated dead time 1.1 min; A: water + 0.1% formic acid, pH 3; B: acetonitrile + 0.1% formic acid, pH 3; gradient (min/%B) 0/5 2/5 17/99.9 20/99.9. The source holds these as a separate data set.
Data set [6] can be described thus: RP, Merck Supelco Ascentis Express C18, 100 × 2.1 mm, 2 µm, 40 °C, 0.4 mL/min, estimated dead time 0.55 min; A: water + 0.1% formic acid, pH 3; B: acetonitrile + 0.1% formic acid, pH 3; gradient (min/%B) 0/5 2/5 17/99.9 20/99.9. This is another data set of the same source.
Data set [7] can be described thus: RP, Merck Supelco Ascentis Express C18, 100 × 2.1 mm, 2 µm, 40 °C, 0.35 mL/min, estimated dead time 0.63 min; A: water + 0.1% formic acid, pH 3; B: acetonitrile + 0.1% formic acid, pH 3; gradient (min/%B) 0/5 2/5 17/99.9 20/99.9.

Regarding `O=C(O)c1ccc2ccccc2c1O` [1-HYDROXY-2-NAPHTHOATE], the LC retention time is 9.28 min in data set [1]; 10.4 min in data set [2]; 8.56 min in data set [3]; 9.77 min in data set [4]; 10.4 min in data set [5]; 8.61 min in data set [6]. Further, in data set [7], the LC retention time was 8.9 min.
Consider `Cn1cnc2c(ncn2C2OC(CO)C(O)C2O)c1=N` (stereo not given) [1-METHYLADENOSINE], for which the LC retention time in data set [1] is 1.31 min; in data set [2], 2.01 min; in data set [3], 0.993 min; in data set [4], 1.58 min; in data set [5], 2.01 min; in data set [6], 1.01 min. Further, the LC retention time in data set [7] was 1.16 min.
For `CC(=O)c1ccc(O)cc1O` [2',4'-DIHYDROXYACETOPHENONE], the LC retention time in data set [1] was 5.94 min; in data set [2], 7 min; in data set [3], 5.14 min; in data set [4], 6.34 min; in data set [5], 7.01 min; in data set [6], 5.17 min. Further, the LC retention time in data set [7] is 5.5 min.
With `O=C(O)c1cccc(O)c1O` [2,3-DIHYDROXYBENZOATE], the LC retention time in data set [1] was 2.06 min; in data set [2] it was 5.32 min; in data set [3] it was 1.52 min; in data set [4], 2.44 min; in data set [5] it was 5.33 min; in data set [6], 1.53 min. In addition, in data set [7], the LC retention time was 3.88 min.
Turning to `O=c1[nH]c(=O)c2nccnc2[nH]1` [2,4-DIHYDROXYPTERIDINE], the LC retention time in data set [1] is 0.967 min; in data set [2], 1.41 min; in data set [3] it was 0.687 min; in data set [4] it was 1.13 min; in data set [5], 1.41 min; in data set [6], 0.7 min. Also, in data set [7], the LC retention time was 0.783 min.
On to `O=C(O)c1cc(O)ccc1O` [2,5-DIHYDROXYBENZOATE], for which the LC retention time in data set [1] was 3.5 min; in data set [2], 4.65 min; in data set [3] it was 2.63 min; in data set [4] it was 4.02 min; in data set [5], 4.65 min; in data set [6], 2.66 min. Moreover, the LC retention time in data set [7] is 3.04 min.
On to `CSCCC(O)C(=O)O` (stereo not given) [2-HYDROXY-4-(METHYLTHIO)BUTANOATE], for which the LC retention time is 2.49 min in data set [1]; 3.75 min in data set [2]; 1.86 min in data set [3]; 3 min in data set [4]; 3.75 min in data set [5]; 1.9 min in data set [6]. Further, the LC retention time in data set [7] is 2.15 min.
Take `O=C(O)Cc1ccccc1O` [2-HYDROXYPHENYLACETATE]: the LC retention time in data set [1] is 3.67 min; in data set [2], 4.83 min; in data set [3], 2.88 min; in data set [4], 4.19 min; in data set [5], 4.85 min; in data set [6], 2.95 min. Besides, in data set [7], the LC retention time was 3.28 min.
As to `CC(CCC(=O)O)C(=O)O` (stereo not given) [2-METHYLGLUTARATE], the LC retention time in data set [3] is 2.02 min; in data set [4], 3.27 min; in data set [5], 3.99 min; in data set [6] it was 2.05 min; in data set [7] it was 2.33 min.
For `CC(=CC(=O)O)C(=O)O` [2-METHYLMALEATE], the LC retention time in data set [2] is 2.46 min; in data set [3], 1.16 min; in data set [5] it was 2.44 min; in data set [6] it was 0.99 min; in data set [7], 1.35 min.
Turning to `NCC(=O)CCC(=O)O` [5-AMINOLEVULINATE], the LC retention time in data set [1] was 1.01 min; in data set [2], 1.53 min; in data set [3], 0.74 min; in data set [5], 1.51 min; in data set [6], 0.737 min; in data set [7], 0.853 min.
In the case of `O=C(O)CCCCC(=O)O` [ADIPATE], the LC retention time is 2.02 min in data set [3]; 3.27 min in data set [4]; 3.99 min in data set [5]; 2.04 min in data set [6]; 2.33 min in data set [7].
For the compound `CC(O)(CC(=O)O)C(=O)O` (stereo not given) [CITRAMALATE], the LC retention time is 0.717 min in data set [3], 1.49 min in data set [5], 0.76 min in data set [6] and 0.86 min in data set [7].
With `CCC=CCC=CCC=CCC=CCC=CCC=CCCC(=O)O` [DOCOSAHEXAENOATE], the LC retention time is 14.5 min in data set [3]; 15.8 min in data set [4]; 16.5 min in data set [5]; 14.5 min in data set [6]; 14.8 min in data set [7].
Turning to `CCCCCCCCC=CCCCCCCCC(=O)O` [ELAIDATE], the LC retention time was 16.8 min in data set [1]; 18.1 min in data set [2]; 16 min in data set [3]; 18.2 min in data set [5]; 16.1 min in data set [6]; 16.4 min in data set [7].
As for `CCCCCCCCCCCCCCCCC(=O)O` [HEPTADECANOATE], the LC retention time in data set [3] is 16.3 min; in data set [4], 17.7 min; in data set [5] it was 18.5 min; in data set [6], 16.4 min; in data set [7] it was 16.7 min.
As to `O=C(O)Cc1c[nH]c2ccccc12` [INDOLE-3-ACETATE], the LC retention time in data set [1] is 6.2 min; in data set [2] it was 7.21 min; in data set [3], 5.56 min; in data set [4], 6.63 min; in data set [6] it was 5.6 min; in data set [7], 5.84 min.
Consider `COC(=O)Cc1c[nH]c2ccccc12` [INDOLE-3-METHYL ACETATE], for which the LC retention time was 8.12 min in data set [1]; 8.4 min in data set [3]; 8.62 min in data set [4]; 10.2 min in data set [5]; 7.46 min in data set [6]; 8.75 min in data set [7].
Consider `C=C(CC(=O)O)C(=O)O` [ITACONATE], for which the LC retention time is 2.46 min in data set [2]; 1.14 min in data set [3]; 2.44 min in data set [5]; 1.21 min in data set [6]; 1.35 min in data set [7].
With `CC(C(=O)O)C(=O)O` [METHYLMALONATE], the LC retention time is 0.807 min in data set [3]; 1.37 min in data set [4]; 1.71 min in data set [5]; 0.863 min in data set [6]; 0.957 min in data set [7].
Take `CC(O)(CCO)CC(=O)[O-]` (stereo not given) [MEVALONATE]: the LC retention time is 1.57 min in data set [2]; 0.73 min in data set [3]; 1.2 min in data set [4]; 1.55 min in data set [5]; 0.72 min in data set [6]; 0.863 min in data set [7].
`O=C(O)CCCC(=O)C(=O)O` [OXOADIPATE]: the LC retention time in data set [3] was 0.707 min; in data set [5], 1.48 min; in data set [6] it was 0.667 min; in data set [7], 0.833 min.
Take `O=C([O-])Cc1ccccc1` [PHENYLACETATE]: the LC retention time is 4.5 min in data set [1]; 3.93 min in data set [3]; 3.45 min in data set [4]; 4.08 min in data set [5]; 3.95 min in data set [6]; 4.56 min in data set [7].
For `CC1NCCc2cc(O)c(O)cc21` (stereo not given) [SALSOLINOL], the LC retention time in data set [3] was 0.68 min; in data set [5], 1.44 min; in data set [7], 0.82 min.
On to `C[Se]CCC(N)C(=O)O` (stereo not given) [SELENOMETHIONINE], for which the LC retention time in data set [1] was 0.887 min; in data set [2], 1.37 min; in data set [3] it was 0.683 min; in data set [4], 1.07 min; in data set [5] it was 1.37 min; in data set [7] it was 0.763 min.
As for `CCCCCCCCCCCCCCCCCC(=O)[O-]` [STEARATE], the LC retention time in data set [3] is 16.9 min; in data set [4], 18.3 min; in data set [5], 19.1 min; in data set [6] it was 16.9 min; in data set [7], 17.2 min.
For the compound `O=C(O)CCC(=O)O` [SUCCINATE], the LC retention time in data set [3] is 0.73 min; in data set [5] it was 1.49 min; in data set [7], 0.827 min.
Taken in the same sequence, the figures for `CC(CCC(=O)O)C1CCC2C3C(O)CC4CC(O)CCC4(C)C3CCC12C` (stereo not given) [URSODEOXYCHOLATE] were 10.5 min, 12.2 min and 10.8 min.

These data come from the RepoRT retention time repository (doi:10.1007/s00216-021-03828-0).
